Where “and” joins values, the source holds several entries; their conditions need not be identical. Equal values may be shown once. Read-outs that look alike come from different tables or passages of the source.
Key:
PfAsnRS = PfAsnRS (Plasmodium falciparum, UniProt O96198); test: biochemical; conditions: for ATP consumption: PfAsnRS
HsAsnRS = target: T1, HsAsnRS (Homo sapiens, UniProt O43776); test: ATP consumption assay (Kinase-Glo), HsAsnRS; format: biochemical; conditions: for ATP consumption: HsAsnRS, normalised to 1 (Fig 3E)
T1 construct: HsAsnRS (residues M1–P548) and CDHsAsnRS (residues A98–P548); His6 (N, cleaved yes); made in house; host or cells: E. coli BL21 (DE3), pET11a
T1 sequence (O43776 1-548): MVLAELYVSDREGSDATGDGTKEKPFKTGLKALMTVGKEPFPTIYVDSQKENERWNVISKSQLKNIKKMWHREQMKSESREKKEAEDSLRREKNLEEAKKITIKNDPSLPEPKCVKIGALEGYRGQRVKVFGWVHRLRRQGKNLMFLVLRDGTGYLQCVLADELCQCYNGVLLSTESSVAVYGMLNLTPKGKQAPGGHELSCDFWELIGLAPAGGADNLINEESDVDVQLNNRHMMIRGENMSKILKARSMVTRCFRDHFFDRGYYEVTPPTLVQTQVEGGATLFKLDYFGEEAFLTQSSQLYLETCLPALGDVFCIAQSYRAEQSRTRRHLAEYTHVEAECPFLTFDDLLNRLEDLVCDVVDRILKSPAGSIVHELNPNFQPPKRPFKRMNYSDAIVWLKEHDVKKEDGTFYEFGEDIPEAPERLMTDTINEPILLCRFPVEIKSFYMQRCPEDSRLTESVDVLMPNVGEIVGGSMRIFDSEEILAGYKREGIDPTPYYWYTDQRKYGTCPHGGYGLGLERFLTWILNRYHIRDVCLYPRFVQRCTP

[1] = test system: P. falciparum Cam3.II-rev; test: Drug pulse (6 h) viability assay; format: cell-based, Plasmodium falciparum; conditions: for IC50: read-out: IC50 (Viability)
Protocol: (§1) Viability was assessed in the second cycle by flow cytometry, following labeling with 2 μM Syto-61 (Thermo Fisher Scientific)[48],[49]. Viability represents the parasitemia normalized to untreated and “kill” controls that were treated with 2 μM dihydroartemisinin (DHA; Sigma-Aldrich) for 48–72 h. For drug pulse assays, tightly synchronized Cam3.II-rev[50] parasites (1–1.5% parasitemia, 0.2% final hematocrit) were added to the plates and incubated for 6 h. Drugs were removed and the parasitemia assessed in the trophozoite stage of the next cycle.

[2] = test system: protein translation in P. falciparum trophozoites (Cam3.II-rev); test: Protein translation assay (OPP incorporation); format: cell-based, Plasmodium falciparum; conditions: for Translation: individual experiments, 0 nM = 100; for IC50: read-out: IC50 (Translation)
Protocol: O-propargyl-puromycin (OPP) (Abcam) was added to the culture and incubated for a further 2 h. Parasites were washed three times in 1 × PBS (Gibco™) and fixed with 4% formaldehyde (Polysciences) and 0.02% glutaraldehyde (Sigma) in 1 × PBS for 20 min at room temperature (RT). Cells were washed two times with buffer A (3% human serum in 1 × PBS). Pellets were permeabilized in buffer A containing 0.05% Triton® X-100 and washed two times with buffer A. Fixed-permeabilized cells were subjected to copper-catalyzed azide–alkyne cycloaddition (CuAAC) at 37 °C for 1 h in the presence of 0.1 mM CuSO4, 0.5 mM THPTA, 5 mM sodium ascorbate, and 0.1 μM Alexa Fluor 488 azide in buffer A. Pellets were washed four times in buffer A and resuspended in buffer A containing 25 μg/ml propidium iodide (Invitrogen™). Cells were interrogated by flow cytometry (FACS Canto II; BD Biosciences, San Jose, CA) using FITC and Cy™5.5 channels.

P. falciparum (3D7) = test: Activity against P. falciparum 3D7 cultures, 72 h (PfLDH growth inhibition / flow cytometry); format: cell-based, Plasmodium falciparum; conditions: Plasmodium falciparum, 3D7, 72 h, read-out: Pf3D7 IC50 (72h), individual biological repeats (source data of Table 1)
Protocol: Antimalarial activity against P. falciparum 3D7 was tested by TCGLS, Kolkata, India, using the lactate dehydrogenase (PfLDH) growth inhibition assay. […] Plates were shaken to ensure mixing and were placed in the dark at 21 °C for 20 min. […] P. falciparum strain (3D7) was obtained from BEI Resources.
as §1

[3] = 78.1 nM, 6 h pulse, individual experiments, 0 nM = 100
[4] = 156.3 nM, 6 h pulse, individual experiments, 0 nM = 100
[5] = 312.5 nM, 6 h pulse, individual experiments, 0 nM = 100
[6] = 625 nM, 6 h pulse, individual experiments, 0 nM = 100
[7] = 1250 nM, 6 h pulse, individual experiments, 0 nM = 100
[8] = 2500 nM, 6 h pulse, individual experiments, 0 nM = 100
[9] = 5000 nM, 6 h pulse, individual experiments, 0 nM = 100
[10] = 10000 nM, 6 h pulse, individual experiments, 0 nM = 100
[11] = 20000 nM, 6 h pulse, individual experiments, 0 nM = 100

Chain of PfAsnRS (O96198 entry or part of it): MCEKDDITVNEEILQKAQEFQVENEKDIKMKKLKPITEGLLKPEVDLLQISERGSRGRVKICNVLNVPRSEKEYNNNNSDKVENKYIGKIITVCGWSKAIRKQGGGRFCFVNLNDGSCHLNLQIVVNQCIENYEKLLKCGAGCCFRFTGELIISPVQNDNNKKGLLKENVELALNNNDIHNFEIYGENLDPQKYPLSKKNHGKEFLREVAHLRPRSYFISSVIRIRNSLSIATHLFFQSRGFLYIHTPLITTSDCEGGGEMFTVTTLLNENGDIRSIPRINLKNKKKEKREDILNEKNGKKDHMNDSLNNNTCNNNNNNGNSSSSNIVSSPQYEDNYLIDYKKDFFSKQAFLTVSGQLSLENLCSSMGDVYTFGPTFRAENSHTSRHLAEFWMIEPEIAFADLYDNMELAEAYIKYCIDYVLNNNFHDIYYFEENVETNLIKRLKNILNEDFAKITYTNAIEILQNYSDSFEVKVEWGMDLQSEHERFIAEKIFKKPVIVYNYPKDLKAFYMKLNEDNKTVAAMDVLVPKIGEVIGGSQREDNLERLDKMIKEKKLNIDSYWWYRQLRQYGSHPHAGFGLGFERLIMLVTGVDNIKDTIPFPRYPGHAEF

Nc1ncnc2c1ncn2[C@@H]1O[C@H](COS(N)(=O)=O)[C@@H](O)[C@H]1O [AMS, adenosine 5’-O-sulfamate, reference compound]
ATP consumption (PfAsnRS; 0.03 μM AMS, normalised to 1 (Fig 3D), 0.03 µM): 0.946 | ATP consumption (PfAsnRS; 0.1 μM AMS, normalised to 1 (Fig 3D), 0.1 µM): 0.5414 and 0.637 | ATP consumption (PfAsnRS; 0.3 μM AMS, normalised to 1 (Fig 3D), 0.3 µM): 0.3347 and 0.4652 | ATP consumption (PfAsnRS; 1 μM AMS, normalised to 1 (Fig 3D), 1 µM): 0.189 and 0.2604 | ATP consumption (PfAsnRS; 3 μM AMS, normalised to 1 (Fig 3D), 3 µM): 0.1468 and 0.18 | ATP consumption (PfAsnRS; 10 μM AMS, normalised to 1 (Fig 3D), 10 µM): 0.0653 and 0.08191 | ATP consumption (PfAsnRS; 30 μM AMS, normalised to 1 (Fig 3D), 30 µM): 0.09691 and 0.0585 | IC50 (PfAsnRS; IC50, ATP consumption, 0.05 μM PfAsnRS, E. coli tRNA present, 37 °C, 1 h (Fig. 3C, D)): 190 nM

NC(=O)C[C@H](N)C(=O)NS(=O)(=O)c1cccc(-c2cc3ncnc(N)c3s2)c1 [Asn-OSM-S-106]
ATP consumption (HsAsnRS; 0.1 μM Asn-OSM-S-106): 1 and 0.9164 and 0.9986 | ATP consumption (HsAsnRS; 0.3 μM Asn-OSM-S-106): 0.9525 and 1 | IC50 (HsAsnRS; 0.5 μM enzyme without tRNA (Fig. 3E)): 12000 nM | ATP consumption (HsAsnRS; 1 μM Asn-OSM-S-106): 0.8864 and 0.9489 and 0.9329 | ATP consumption (HsAsnRS; 3 μM Asn-OSM-S-106): 0.7684 and 0.8281 and 0.785 | ATP consumption (HsAsnRS; 10 μM Asn-OSM-S-106): 0.5231 and 0.5272 and 0.5151 | ATP consumption (HsAsnRS; 30 μM Asn-OSM-S-106): 0.2926 and 0.3365 and 0.2915 | ATP consumption (HsAsnRS; 100 μM Asn-OSM-S-106): 0.09965 and 0.131 and 0.08856 | ATP consumption (PfAsnRS; 0.005 μM Asn-OSM-S-106, 0 μM = 100 (Fig 3F), 0.005 µM): 96.6227 and 115.849 and 86.517 and 87.5323 | ATP consumption (PfAsnRS; 0.05 μM Asn-OSM-S-106, 0 μM = 100 (Fig 3F), 0.05 µM): 102.641 and 101.648 and 126.552 and 109.716 and 83.8806 and 85.0945 | ATP consumption (PfAsnRS; 0.1 μM Asn-OSM-S-106, normalised to 1 (Fig 3E), 0.1 µM): 0.9937 and 0.8109 | ATP consumption (PfAsnRS; 0.5 μM Asn-OSM-S-106, 0 μM = 100 (Fig 3F), 0.5 µM): 95.6169 and 98.8652 and 117.558 and 102.603 and 76.814 and 78.5601 | ATP consumption (PfAsnRS; 1 μM Asn-OSM-S-106, normalised to 1 (Fig 3E), 1 µM): 0.8236 and 0.8406 | ATP consumption (PfAsnRS; 3 μM Asn-OSM-S-106, normalised to 1 (Fig 3E), 3 µM): 0.3452 and 0.4265 | ATP consumption (PfAsnRS; 10 μM Asn-OSM-S-106, normalised to 1 (Fig 3E), 10 µM): 0.09706 and 0.1733

C[C@@H]1C[C@@H]([C@H](O)CC2CC(=O)NC(=O)C2)C(=O)[C@@H](C)C1 [Cycloheximide]
Viability ([1]; 39.1 nM, 6 h pulse, individual experiments, 0 nM = 100): 97.4339 and 92.233 | Viability [1, 3]: 94.7793 and 98.0583 | Viability [1, 4]: 102.013 and 98.7864 | Viability [1, 5]: 97.9775 and 92.233 | Viability [1, 6]: 92.6066 and 91.9903 | Viability [1, 7]: 79.0045 and 78.3981 | Viability [1, 8]: 100.147 and 80.518 and 75 | Viability [1, 9]: 78.8213 and 75.2427 | Viability [1, 10]: 77.1877 and 75 | Viability [1, 11]: 95.0102 and 69.6652 and 71.1165 | viability at 0.0391 µM ([1]; Plasmodium falciparum, 6 h, 39.1 nM, 6 h pulse, individual experiments, 0 nM = 100): 108% | viability at 0.0781 µM ([1]; Plasmodium falciparum, 6 h, 78.1 nM, 6 h pulse, individual experiments, 0 nM = 100): 95.9% | viability at 0.1563 µM ([1]; Plasmodium falciparum, 6 h, 156.3 nM, 6 h pulse, individual experiments, 0 nM = 100): 109% | viability at 0.3125 µM ([1]; Plasmodium falciparum, 6 h, 312.5 nM, 6 h pulse, individual experiments, 0 nM = 100): 104% | viability at 0.625 µM ([1]; Plasmodium falciparum, 6 h, 625 nM, 6 h pulse, individual experiments, 0 nM = 100): 102% | viability at 1.25 µM ([1]; Plasmodium falciparum, 6 h, 1250 nM, 6 h pulse, individual experiments, 0 nM = 100): 95% | viability at 5 µM ([1]; Plasmodium falciparum, 6 h, 5000 nM, 6 h pulse, individual experiments, 0 nM = 100): 95.1% | viability at 10 µM ([1]; Plasmodium falciparum, 6 h, 10000 nM, 6 h pulse, individual experiments, 0 nM = 100): 88.3% | IC50 ([1]; Plasmodium falciparum, 6 h): > 1000 nM | Translation ([2]; 39.1 nM, 6 h exposure): 91.0615 and 76.2984 and 81.7995 | Translation ([2]; 78.1 nM, 6 h exposure): 81.922 and 88.5493 and 60.1275 | Translation ([2]; 156.3 nM, 6 h exposure): 69.0756 and 65.574 and 56.5841 | Translation ([2]; 312.5 nM, 6 h exposure): 54.5569 and 51.3303 and 54.0173 | Translation ([2]; 625 nM, 6 h exposure): 34.3298 and 36.573 and 53.0328 | Translation ([2]; 1250 nM, 6 h exposure): 29.8359 and 24.3187 and 24.0049 | Translation ([2]; 2500 nM, 6 h exposure): 20.2838 and 21.5354 and 22.6499 | Translation ([2]; 5000 nM, 6 h exposure): 16.1089 and 19.5652 and 16.2965 | Translation ([2]; 10000 nM, 6 h exposure): 8.675 and 13.4553 and 5.495 | Translation ([2]; 20000 nM, 6 h exposure): 7.645 and 6.944 and 4.617 | IC50 ([2]; Plasmodium falciparum): 331 nM

Cc1ccc(S(N)(=O)=O)cc1-c1cc2ncnc(N)c2s1 [OSM-E-32]
IC50 (P. falciparum (3D7)): 8330 nM

CC1(C)N=C(N)N=C(N)N1OCCCOc1cc(Cl)c(Cl)cc1Cl [WR99210]
Viability [1, 3]: 90.9718 and 69.2733 and 98.7384 | Viability [1, 4]: 76.1805 and 35.562 and 55.9172 | Viability [1, 5]: 32.1885 and 5.756 and 17.0102 | Viability [1, 6]: 6.692 and 4.516 and 3.401 | Viability [1, 7]: 5.505 and 0.4167 and 0.2921 | Viability [1, 8]: 3.52 and 0.4893 and 0.1273 | Viability [1, 9]: 3.786 and 0.4893 and 2.194 | Viability [1, 10]: 2.477 and 1.7781 and 0.09123 | Viability [1, 11]: 0 and 0.969 and 1.737 | Viability ([1]; 40000 nM, 6 h pulse, individual experiments, 0 nM = 100): 3.358 and 0 (2×) | IC50 ([1]; 6 h pulse, viability at trophozoite stage of next cycle): 0.9 nM | Translation ([2]; 78.1 nM, 6 h exposure): 90.9036 and 76.9712 and 89.4018 | Translation ([2]; 156.3 nM, 6 h exposure): 89.4578 and 82.2873 and 81.3601 | Translation ([2]; 312.5 nM, 6 h exposure): 91.0241 and 91.4005 and 91.4867 | Translation ([2]; 625 nM, 6 h exposure): 83.5542 and 90.7751 and 99.6277 | Translation ([2]; 1250 nM, 6 h exposure): 82.5301 and 79.1155 and 98.3867 | Translation ([2]; 2500 nM, 6 h exposure): 84.3976 and 81.0364 and 102.259 | Translation ([2]; 5000 nM, 6 h exposure): 88.5542 and 92.6513 and 94.4155 | Translation ([2]; 10000 nM, 6 h exposure): 97.2892 and 85.5484 and 98.6845 | Translation ([2]; 20000 nM, 6 h exposure): 112.47 and 92.0706 and 98.0392 | Translation ([2]; 40000 nM, 6 h exposure): 103.313 and 81.0364 and 102.259 | IC50 ([2]; 6 h exposure, OPP in last 2 h, Cam3.II-rev trophozoites): > 1000 nM

From publication PMC10831071, “Reaction hijacking inhibition of Plasmodium falciparum asparagine tRNA synthetase” (Nature Communications, 2024)
